Counter-ions that a name gives are not always drawn.
What was measured:
Aβ peptide = test: in vitro circular dichroism (CD) assay of β-sheet secondary structure formation; details: Aβ peptide with test compound in Tris-HCl buffer pH 7, incubated 0 or 24 hours at 37° C., CD at 25° C.
Text: It is known that amyloidogenic peptides or proteins which have formed amyloid deposits or plaques have a significant amount of β-sheet secondary structure, while the unaggregated peptide or protein generally has less β-sheet structure. It is believed that the ability of a candidate therapeutic compound to prevent the formation of β-sheet secondary structure in vitro may be correlated with the ability of the compound to inhibit amyloidogenesis in vivo. Accordingly, phosphonate compounds were assayed for ability to prevent the formation of β-sheet secondary structure in an in vitro circular dichroism (CD) assay.
Aβ is a 40 amino acid protein associated with Alzheimer's disease. Aβ peptide was prepared and purified as described in Fraser, P. E. et al., Biochemistry 31, 10716 (1992). Briefly, the peptide was synthesized by standard solid-phase techniques and purified by HPLC according to well known procedures.
All CD experiments were performed on a commercially available instrument. The cell was maintained at 25° C. using a circulating water bath. Computer-averaging of traces was performed to improve signal-to-noise ratios. The solvent signal was subtracted. CD experiments were performed for each test compound according to the following procedure:
A stock solution of purified peptide was made by dissolving the peptide in phosphate-buffered saline (PBS) to a concentration of 2 mg/ml. […]

amyloid peptide = amyloid peptide solubility assay (overnight incubation, centrifugation, soluble peptide determination); details: compound and amyloid peptide incubated together overnight, then centrifugation; preliminary result
[1] = test system: cortical/hippocampal neuronal cultures; test: neurotoxicity in cortical/hippocampal neuronal cultures; format: cell-based; details: concentrations ranging from 10^-7 M to 10^-4 M

Compound	β-sheet formation (minimum at 218 nm in CD spectrum versus control) (Aβ peptide)	effect on amyloid peptide solubility (amount of soluble peptide) (amyloid peptide)	neurotoxicity [1]
O=C(O)CCOCCP(=O)(O)O [2-carboxyethoxyethylphosphonic acid]	did not appear to prevent β-pleated sheet formation	–	–
O=C(O)P(=O)(O)O [Phosphonoformate sodium salt, Trisodium phosphonoformate]	significantly and reproducibly reduce the amount of β-sheet formation	little effect on amyloid peptide solubility	no significant toxicity
